Experimental data reported in patent US7148218B2 (priority 2001, dated 2006).
Where two headings read alike, the source gives them in different places.

How the values were obtained:
Experiment in all cases: cells
[1] = test system: HCT 116 colon carcinoma; assay type: cell-based; settings: 3-day exposure, average of two or more separate experiments, read-out: IC50 HCT116
Source text: (§1) As indicated above, all of the compounds of formula I are anti-tumor agents and are, therefore, useful in inhibiting the growth of various lymphomas, sarcomas, carcinomas, myelomas, and leukemia cell lines. […] This assay was adapted from the 60 cell line assay used by the National Cancer Institute (NCI) with the following modifications: • 1) four cell lines representative for the important tumor types, viz., MIP 101 colon carcinoma, HCT 116 colon carcinoma, 1A9 ovarian carcinoma and 1A9PTX22 ovarian carcinoma, were utilized; and 2) a tetrazolium derivative, viz., MTT, was utilized to determine cell density.
(§2) The ADGMA compares the number of viable cells following a 3-day exposure to a test compound relative to the number of cells present at the time the test compound was added. […] The absorbance at 540 nm (A540) of the formazan derivative is proportional to the number of viable cells. The IC50 for a test compound is the concentration of compound required to reduce the final cell number to 50% of the final control cell number. If cell proliferation is inhibited, the assay further defines compounds as cytostatic (cell number after 3-day compound incubation >cell number at time of compound addition) or cytotoxic (cell number after 3-day compound incubation <cell number at time of compound addition).
The HCT 116 colon carcinoma cell line was obtained from the American Type Culture Collection (ATCC, Rockville, Md.). The MIP 101 colon carcinoma cell line was obtained from Dr. Robert Kramer (Bristol Meyers Squibb) and was previously described (Niles R M, Wilhelm S A, Steele G D JR, Burke B, Christensen T, Dexter D, O'Brien M J, Thomas P, Zamcheck N. Isolation and characterization of an undifferentiated human colon carcinoma cell line (MIP-101). Cancer Invest. 1987;5(6):545–52.). […]
Cells are trypsinized and counted using a hemacytometer to determine cell concentrations. […] Initial cell densities, assayed one day after plating, are roughly 0.10–0.20 A540 absorbance units greater than the media blank. […]

[2] = test system: 1A9PTX22 ovarian carcinoma; assay type: cell-based, human; settings: 3-day exposure, paclitaxel-resistant subline, average of two or more separate experiments
Source text: as §1, §2
(§3) The HCT 116 colon carcinoma cell line was obtained from the American Type Culture Collection (ATCC, Rockville, Md.). The MIP 101 colon carcinoma cell line was obtained from Dr. Robert Kramer (Bristol Meyers Squibb) and was previously described (Niles R M, Wilhelm S A, Steele G D JR, Burke B, Christensen T, Dexter D, O'Brien M J, Thomas P, Zamcheck N. Isolation and characterization of an undifferentiated human colon carcinoma cell line (MIP-101). Cancer Invest. 1987;5(6):545–52.). The 1A9 and the 1A9PTX22 ovarian tumor cell lines were obtained from Dr. Tito Fojo, Medicine Branch, Division of Clinical Sciences, National Cancer Institute, National Institutes of Health, Bethesda, Md. 20892. The 1A9 is a clone of the ovarian carcinoma cell line, A2780 (Giannakakou P, Sackett, D L, Kang Y-K, Zhan Z, Buters J T M, Fojo T, Poruchynsky MS. Paclitaxel-resistant human ovarian cancer cells have mutant δ-tubulins that impaired paclitaxel-driven polymerization. J. Biol. Chem. 1997, 272(4):17118–17125). The 1A9PTX22 subline was isolated as an individual clone from the 1A9 cell line in a single step selection by exposure to 5 ng/mL paclitaxel in the presence of 5 μg/mL of verapamil. All cell lines were used between passages 4–20 following thawing. MIP-101 colon carcinoma, HCT 116 colon carcinoma, 1A9 ovarian carcinoma and 1A9PTX22 ovarian carcinoma cell lines are maintained and plated in RPMI 1640 medium containing 10% fetal bovine serum.
(§4) Cells are trypsinized and counted using a hemacytometer to determine cell concentrations. Cells were then plated in their respective maintenance media (200 μL/well) in 96-well plates at the following concentrations: MIP-101, 2000 cells/well; HCT 116, 2000 cells/well; 1A9, 10000 cells/well; and 1A9PTX22, 10000 cells/well. […] Initial cell densities, assayed one day after plating, are roughly 0.10–0.20 A540 absorbance units greater than the media blank. Ninety-six well plates were seeded on day 0 and the test compounds are added on day 1. A “time 0” plate was created that received media only in row A and one cell line/row in rows B–E. The “time 0” plate was processed 24 hours after plating (at the time when drugs were added to experimental plates), as follows: 5 micoliters of the MTT stock solution (0.5 mg/mL in PBS) was added to each well and then incubated for three hours at 37° C., 5% CO2, in a humidified environment. Media was then carefully and completely removed. Plates were allowed to dry in the dark. DMSO (dimethylsulfoxide) was added to each well (100 μL/well) and plates were placed on an orbital shaker for 2 hours. […]

[3] = test system: MIP 101 colon carcinoma; assay type: cell-based, human; settings: 3-day exposure, average of two or more separate experiments, read-out: IC50 MIP101
Source text: as §1, §2, §3, §4

[4] = test system: 1A9 ovarian carcinoma; assay type: cell-based, human; settings: 3-day exposure, average of two or more separate experiments
Source text: as §1, §2, §3, §4

| Compound | IC50 ([1]; Homo sapiens, HCT-116, 72 h) [nM] | IC50 ([2]; Homo sapiens, 1A9/ptx-22, 72 h) [nM] | IC50 ([3]; Homo sapiens, 72 h) [µM] | IC50 ([4]; Homo sapiens, 72 h) [nM] | IC50 [1] [nM] | IC50 [2] [nM] | IC50 [3] [µM] | IC50 [4] [nM] |
| --- | --- | --- | --- | --- | --- | --- | --- | --- |
| C=C/C=C\[C@H](C)C(OC(N)=O)C(C)C(O)C(C)C(=O)N(C)C[C@H](C)[C@@H](O)[C@@H](C)/C=C\C(O)C[C@@H]1OC(=O)[C@H](C)C(O)C1C (stereo partly drawn) [Ex. 2, (2R,3S,4R,5S,7S,8Z)-13-[[(2R,3S,4S,5S,6S,7Z)-5-[(aminocarbonyl)oxy]-3-hydroxy-2,4,6-trimethyl-1-oxo-7,9-decadienyl]methylamino]-3,5,7,11-tetrahydroxy-2,4,10,12-tetramethyl-8-tridecenoic acid δ-lactone] | 13000 | 6000 | 20 | 4000 | – | – | – | – |
| CC(=O)O[C@H]1C(=O)[C@@]2(C)[C@H]([C@H](OC(=O)c3ccccc3)[C@]3(O)C[C@H](OC(=O)[C@H](O)[C@@H](NC(=O)c4ccccc4)c4ccccc4)C(C)=C1C3(C)C)[C@]1(OC(C)=O)CO[C@@H]1C[C@@H]2O [paclitaxel, reference compound] | 0.3 | 1 | 0.2 | 47 | – | – | – | – |
| (2R,3S,4S,5S,7S,8Z,10S,11S,12S,13Z,16S,17R,18S,19S,20S)-19-[(aminocarbonyl)oxy]-3,5,7,11,17-pentahydroxy-2,3,4,10,12,14,16,18,20-nonamethyl-21-(phenylmethoxy)-8,13-heneicosadienoic acid δ-lactone [Ex. 1] | – | – | – | – | 200 | 180 | 3.8 | 30 |
